How the values were obtained:
MDA-MB-231 [1] = experiment: Potency index, ratio of doxorubicin IC50 to compound IC50 for human MDA-MB-231 cells; format: functional
K562 = experiment: Antiproliferative activity against human K562 cells assessed as reduction in cell viability measured after 6 days by MTT assay; format: functional, cell-based; settings: K562, 144 h
HL-60 = experiment: Antiproliferative activity against human HL-60 cells assessed as reduction in cell viability measured after 6 days by MTT assay; format: functional, cell-based; settings: HL-60, 144 h
Jurkat = experiment: Antiproliferative activity against human Jurkat cells assessed as reduction in cell viability measured after 6 days by MTT assay; format: functional, cell-based; settings: 144 h
Raji [2] = experiment: Antiproliferative activity against human Raji cells assessed as reduction in cell viability measured after 6 days by MTT assay; format: functional, cell-based; settings: 144 h
MCF7 = experiment: Antiproliferative activity against human MCF7 cells assessed as reduction in cell viability measured after 6 days by MTT assay; format: functional, cell-based; settings: MCF7, 144 h
MDA-MB-231 [3] = experiment: Antiproliferative activity against human MDA-MB-231 cells assessed as reduction in cell viability measured after 6 days by MTT assay; format: functional, cell-based; settings: MDA-MB-231, 144 h
HeLa = experiment: Antiproliferative activity against human HeLa cells assessed as reduction in cell viability measured after 6 days by MTT assay; format: functional, cell-based; settings: 144 h
A549 [4] = experiment: Antiproliferative activity against human A549 cells assessed as reduction in cell viability measured after 6 days by MTT assay; format: functional, cell-based; settings: A549, 144 h
MRC5 = experiment: Cytotoxicity against human MRC5 cells assessed as reduction in cell viability measured after 6 days by MTT assay; format: cell-based; settings: MRC5, 144 h
Raji [5] = experiment: Potency index, ratio of doxorubicin IC50 to compound IC50 for human Raji cells; format: functional
A549 [6] = experiment: Potency index, ratio of doxorubicin IC50 to compound IC50 for human A549 cells; format: functional

Structure (SMILES) | IC50 (K562) [µM] | IC50 (HL-60) [µM] | IC50 (Jurkat) [µM] | IC50 (Raji [2]) [µM] | IC50 (MCF7) [µM] | IC50 (MDA-MB-231 [3]) [µM] | IC50 (HeLa) [µM] | IC50 (A549 [4]) [µM] | Ratio IC50 (MDA-MB-231 [1]) | IC50 (MRC5) [µM] | Ratio IC50 (Raji [5]) | Ratio IC50 (A549 [6])
CC(=O)O[C@@H]1C=CC(=O)O[C@@H]1[C@@H](COC(=O)c1c(Cl)cc(Cl)cc1Cl)OC(C)=O | – | – | – | – | – | – | – | – | 5 | – | – | –
CC(=O)OC[C@@H](OC(C)=O)[C@H]1OC(=O)C=C[C@H]1OC(C)=O | 7.54 | 29.7 | 24.6 | 10.1 | 3.87 | 7.48 | 2.64 | 12.6 | – | > 100 | – | –
CC(=O)O[C@@H]1C=CC(=O)O[C@@H]1[C@@H](COC(=O)/C=C/c1ccc(F)cc1)OC(C)=O | 3.46 | 1.89 | 5.32 | 2.31 | 4.26 | 34.4 | 1.68 | 2.12 | – | > 100 | – | –
COc1ccc(/C=C/C(=O)OC[C@@H](OC(C)=O)[C@H]2OC(=O)C=C[C@H]2OC(C)=O)cc1 | 6.96 | 10 | 2.59 | 10 | 9.31 | 22.8 | 5.93 | 1.4 | – | 78 | – | –
CC(=O)O[C@@H]1C=CC(=O)O[C@@H]1[C@@H](COC(=O)c1ccc([N+](=O)[O-])cc1)OC(C)=O | 7.64 | 1.11 | 7.45 | 18.5 | 5.32 | 4.12 | 4.65 | 8.64 | – | > 100 | – | –
CO[C@H]1CC(=O)O[C@H]([C@@H](COC(=O)/C=C/c2ccc([N+](=O)[O-])cc2)OC(C)=O)[C@@H]1OC(C)=O | 2.38 | 3.11 | 0.12 | 5.64 | 5.12 | 28.6 | 0.67 | 0.18 | – | > 100 | – | 27
COc1cccc(C(=O)OC[C@@H](OC(=O)c2cccc(OC)c2)[C@H]2OC(=O)C=C[C@H]2OC(=O)c2cccc(OC)c2)c1 | 4.65 | 6.21 | 21.2 | 2.69 | 30.2 | 1.58 | 7.64 | 18.2 | – | > 100 | – | –
O=C1C=C[C@@H](OC(=O)c2ccccc2)[C@@H]([C@@H](COC(=O)c2ccccc2)OC(=O)c2ccccc2)O1 | 3.25 | 8.25 | 47.2 | 1.08 | 2.36 | 52.3 | 15.5 | 21.5 | – | > 100 | – | –
O=C1CC2OCC(OCc3ccccc3)C(O1)C2OCc1ccccc1 (stereo unspecified) | 8.1 | 3.48 | 1.08 | 0.6 | 0.21 | 0.16 | 8.22 | 6.24 | – | > 100 | – | –
CC(=O)O[C@@H]1C=CC(=O)O[C@@H]1[C@@H](COC(=O)c1ccc(Cl)cc1)OC(C)=O | 3.69 | 32.6 | 24.4 | 1.85 | 2.64 | 1.85 | 11 | 15.7 | – | > 100 | – | –
O=C1CC2OCC(O)C(O1)C2O (stereo unspecified) | 2.92 | 1.64 | 1.65 | 8.12 | 3.34 | 31.5 | 1.17 | 1.15 | – | > 100 | – | –

More lines, main results first:

IC50 (K562) [µM] | IC50 (HL-60) [µM] | IC50 (Jurkat) [µM] | IC50 (Raji [2]) [µM] | IC50 (MCF7) [µM] | IC50 (MDA-MB-231 [3]) [µM] | IC50 (HeLa) [µM] | IC50 (A549 [4]) [µM] | Structure (SMILES) | Ratio IC50 (MDA-MB-231 [1]) | IC50 (MRC5) [µM] | Ratio IC50 (Raji [5]) | Ratio IC50 (A549 [6])
0.43 | 1.57 | 10.3 | 0.69 | 1.11 | 3.26 | 1.08 | 4.25 | COc1ccc(/C=C/C(=O)OC[C@@H](OCc2ccccc2)[C@H]2OC(=O)C=C[C@H]2OCc2ccccc2)cc1 | – | > 100 | – | –
1.42 | 10.2 | 12.3 | 0.01 | 17.6 | 4.79 | 4.8 | 12.9 | O=C1C=C[C@@H](OCc2ccccc2)[C@@H]([C@@H](CO)OCc2ccccc2)O1 | – | > 100 | 298 | –
1.01 | 5.4 | 4.16 | 2.47 | 3.01 | 3.58 | 7.31 | 12.1 | O=C1C=C[C@@H](OCc2ccccc2)[C@@H]([C@@H](COC(=O)/C=C/c2ccc(F)cc2)OCc2ccccc2)O1 | – | > 100 | – | –
2.34 | 4.03 | 0.58 | 2.75 | 1.4 | 6.93 | 1.84 | 2.26 | CC(=O)O[C@@H]1C=CC(=O)O[C@@H]1[C@@H](COC(=O)/C=C/c1ccc([N+](=O)[O-])cc1)OC(C)=O | – | > 100 | – | –
1.59 | 0.61 | 4.96 | 1.33 | 2.57 | 4.97 | 9.51 | 13.2 | O=C1C=C[C@@H](OCc2ccccc2)[C@@H]([C@@H](COC(=O)/C=C/c2ccccc2)OCc2ccccc2)O1 | – | > 100 | – | –
0.88 | 9.23 | 14.7 | 1.82 | 18.9 | 6.42 | 5.35 | 15 | CC(=O)OC[C@@H](OCc1ccccc1)[C@H]1OC(=O)C=C[C@H]1OCc1ccccc1 | – | > 100 | – | –
1.27 | 2.53 | 5.71 | 0.14 | 1.66 | 1.55 | 2.65 | 5.24 | O=C1C=C[C@@H](OCc2ccccc2)[C@@H]([C@@H](COC(=O)/C=C/c2ccc([N+](=O)[O-])cc2)OCc2ccccc2)O1 | – | > 100 | – | –
